Data published in US20250332266A1, “COMPOUNDS FOR THE DEGRADATION OF EGFR KINASE” (BeiGene Switzerland GmbH, priority 2022, published 2025).

Key:
Format in all cases: cell-based
[1] = target: EGFR Del19/T790M/C797S (H1975-clone #28) (Homo sapiens, UniProt P00533, T790M/C797S, form not given); experiment: EGFR degradation, HTRF total-EGFR assay, H1975-clone #28 (DTC); details: H1975-clone #28 Del19/T790M/C797S, 16 h treatment
Procedure, shortened: (§1)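 H1975 clones with endogenous EGFR knocked out and homozygous exogenous EGFR mutants (#28 Del19/T790M/C797S; #25 L858R/T790M/C797S) treated 16 h at 37 °C, 8 doses, 5-fold from 10 μM, 0.2% DMSO. Total EGFR measured by HTRF on lysates, normalised to DMSO controls; DC50 and Dmax from curve fit.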

[2] = target: T1, EGFR L858R/T790M/C797S (H1975-clone #25) (Homo sapiens, UniProt P00533, C797S/L858R/T790M); experiment: EGFR degradation, HTRF total-EGFR assay, H1975-clone #25 (LTC); details: H1975-clone #25 L858R/T790M/C797S, 16 h treatment
T1 construct: expressed in transfected cells; host or cells: H1975 (clone #25), lentiviral transduction, endogenous EGFR knocked out
Procedure, shortened: as §1

EGFR L858R (BaF3-L858R) = target: T2, EGFR L858R (BaF3-L858R) (Homo sapiens, UniProt P00533, L858R); experiment: EGFR degradation, HTRF total-EGFR assay, BaF3-L858R cells; details: 16 h treatment
T2 construct: host or cells: BaF3
Description: BaF3-L858R (abbv. L858R) cell were purchased from Kangyuan Bochuang Biotechnology (Beijing) Co., Ltd.
(§2) H1975-#8 and BaF3-L858R cells are treated with compounds diluted in 0.1% DMSO cell culture medium on day 2, incubate for 16 h, 37° C., 5% CO2. the final concentration of compounds in all assay starts with 10 uM, 5-fold dilution, total 8 doses were included.
(§3) Total-EGFR cellular kit (64NG1PEH) were used for evaluating EGFR degradation.
(§4) After 16 h treatment, for H1975-#8 cells, add 100 μL HTRF 1× lysis buffer to each well; for BaF3-L858R cells, add 20 μL 4× lysis buffer to each well; seal the plate and incubate 1 hour at room temperature on a plate shaker; Once the cells are lysed, 16 μL of cell lysate are transferred to a PE 384-well HTRF detection plate; 4 μL of pre-mixed HTRF antibodies are added to each well; cover the plate with a plate sealer, spin 1000 rpm for 1 min, incubate overnight at room temperature; read on BMG PheraStar with HTRF protocol (337 nm-665 nm-620 nm).
(§5) The inhibition (degradation) percentage of the compound was calculated by the following equation:
(§6) Inhibition percentage of Compound=100−100×(Signal−low control)/(High control−low control), wherein signal=each test compound group
(§7) High control=Cell group with added DMSO and without compound, indicating microplate readings without EGFR degradation.
(§8) Imax (Dmax) is the maximum percentage of inhibition (degradation).
(§9) The IC50 (DC50) value of a compound can be obtained by fitting the following equation
(§10) Wherein, X and Y are known values, and IC50, Hillslope, Top and Bottom are the parameters obtained by fitting with software. Y is the inhibition percentage (calculated from the equation), X is the concentration of the compound; IC50 is the concentration of the compound when the 50% inhibition is reached. The smaller the IC50 value is, the stronger the inhibitory ability of the compound is. Vice versa, the higher the IC50 value is, the weaker the ability the inhibitory ability of the compound is; Hillslope represents the slope of the fitted curve, generally around 1*; Bottom represents the minimum value of the curve obtained by data fitting, which is generally 0%±20%; Top represents the maximum value of the curve obtained by data fitting, which is generally 100%±20%. The experimental data were fitted by calculating and analyzing with Dotmatics data analysis software.

[3] = target: T3, EGFR L858R/C797S (H1975-clone #8) (Homo sapiens, UniProt P00533, C797S/L858R); experiment: EGFR degradation, HTRF total-EGFR assay, H1975-clone #8 (L858R/C797S); details: 16 h treatment
T3 construct: expressed in transfected cells; host or cells: H1975 (clone #8), lentiviral transduction, endogenous EGFR knocked out
Description: H1975-clone #8 (L858R/C797S): EGFR-L858R/C797S were stably expressed in H1975 cell lines by lentivirus-mediated over-expression, respectively. The EGFR over-expressed cells then underwent knockout, in which the EGFR targeting sgRNA was designed to only target the endogenous EGFR copies and preserve the exogenous EGFR copies. Followed by the knockout, the edited H1975 cells were seeded in 96 well plates at the concentration of 1 cell/well, cultured for about 2 weeks to allow single clones formation. The formed clones were screened by DNA sequencing and whole exon sequencing analysis for the desired edition. H1975-clone #8 were finally confirmed as homozygous L858R/C797S EGFR clones.
as §2, §3, §4, §5, §6, §7, §8, §9, §10

Row | Molecule | Degradation H1975 # 28 DTC [1] | Degradation H1975 # 25-LTC [2] | DC50 (EGFR L858R (BaF3-L858R)) [nM] | Dmax (EGFR L858R (BaF3-L858R)) [%] | DC50 [3] [nM] | Dmax [3] [%]
1 | Cc1cc2cc(n1)-c1cnn(C)c1OC[C@H]1C[C@@H](CN3/C(=N/C2=O)Nc2ccc(N(C)C4CC5(C4)CN(C4CCN(c6cc(F)c(C7CCC(=O)NC7=O)c(F)c6)CC4)C5)cc23)C1 (stereo partly drawn) [Example 136, (R)-3-(4-(4-(6-(((7^1s,7^3s,E)-1^1,2^6-dimethyl-3-oxo-5^2,5^3-dihydro-1^1H,5^1H-9-oxa-4-aza-5(2,1)-benzo[d]imidazola-2(2,4)-pyridina-1(4,5)-pyrazola-7(1,3)-cyclobutanacyclononaphane-5^6-yl)(methyl)amino)-2-azaspiro[3.3]heptan-2-yl)piperidin-1-yl)-2,6-difluorophenyl)piperidine-2,6-dione] | 85.0 | 87.0 |  |  |  | 
2 | Cc1cc2cc(n1)-c1cnn(C)c1OC[C@H]1C[C@@H](CN3/C(=N/C2=O)Nc2ccc(N4CCN(C5CN(C6CCN(c7cc(F)c([C@H]8CCC(=O)NC8=O)c(F)c7)CC6)C5)CC4)cc23)C1 [Example 137, (R)-3-(4-(4-(3-(4-((7^1s,7^3s,E)-1^1,2^6-dimethyl-3-oxo-5^2,5^3-dihydro-1^1H,5^1H-9-oxa-4-aza-5(2,1)-benzo[d]imidazola-2(2,4)-pyridina-1(4,5)-pyrazola-7(1,3)-cyclobutanacyclononaphane-5^6-yl)piperazin-1-yl)azetidin-1-yl)piperidin-1-yl)-2,6-difluorophenyl)piperidine-2,6-dione] | 80.2 | 77.3 |  |  |  | 
3 | Cc1cc2cc(n1)-c1cnn(C)c1OC[C@H]1C[C@@H](CN3/C(=N/C2=O)Nc2ccc(N4CCN([C@@H]5CCN(c6cnc(C7CCC(=O)NC7=O)cc6C)C[C@H]5F)CC4)cc23)C1 (stereo partly drawn) [Example 138, 3-(5-((3R,4R)-4-(4-((7^1s,7^3S,E)-1^1,2^6-dimethyl-3-oxo-5^2,5^3-dihydro-1^1H,5^1H-9-oxa-4-aza-5(2,1)-benzo[d]imidazola-2(2,4)-pyridina-1(4,5)-pyrazola-7(1,3)-cyclobutanacyclononaphane-5^6-yl)piperazin-1-yl)-3-fluoropiperidin-1-yl)-4-methylpyridin-2-yl)piperidine-2,6-dione] | 90.9 | 88.4 |  |  |  | 
4 | Cc1cc2cc(n1)-c1cnn(C)c1OC[C@H]1C[C@@H](CN3/C(=N/C2=O)Nc2ccc(N4C[C@H](C)N(C5CCN(c6ccc(C7CCC(=O)NC7=O)nc6C)CC5)C[C@@H]4C)cc23)C1 (stereo partly drawn) [Example 139, 3-(5-(4-((2S,5S)-4-((7^1s,7^3R,E)-1^1,2^6-dimethyl-3-oxo-5^2,5^3-dihydro-1^1H,5^1H-9-oxa-4-aza-5(2,1)-benzo[d]imidazola-2(2,4)-pyridina-1(4,5)-pyrazola-7(1,3)-cyclobutanacyclononaphane-5^6-yl)-2,5-dimethylpiperazin-1-yl)piperidin-1-yl)-6-methylpyridin-2-yl)piperidine-2,6-dione] |  |  | 30.7 | 88.9 |  | 
5 | CCc1nc(C2CCC(=O)NC2=O)ccc1N1CCC(N2CCN(c3ccc4c(c3)N3C[C@H]5C[C@@H](COc6c(cnn6C)-c6cc(cc(C)n6)C(=O)/N=C/3N4)C5)CC2)CC1 (stereo partly shown) [Example 140, 3-(5-(4-(4-((7^1s,7^3s,E)-1^1,2^6-dimethyl-3-oxo-5^2,5^3-dihydro-1H,5^1H-9-oxa-4-aza-5(2,1)-benzo[d]imidazola-2(2,4)-pyridina-1(4,5)-pyrazola-7(1,3)-cyclobutanacyclononaphane-5^6-yl)piperazin-1-yl)piperidin-1-yl)-6-ethylpyridin-2-yl)piperidine-2,6-dione] |  |  | 37.8 | 90.6 |  | 
6 | Cc1cc2cc(n1)-c1cnn(C)c1OC[C@H]1C[C@@H](CN3/C(=N/C2=O)Nc2ccc(N4CCN(C5CCN(c6c(C)cc(C7CCC(=O)NC7=O)nc6C)CC5)CC4)cc23)C1 (stereo partly shown) [Example 141, 3-(5-(4-(4-((7^1s,7^3s,E)-1^1,2^6-dimethyl-3-oxo-5^2,5^3-dihydro-1^1H,5^1H-9-oxa-4-aza-5(2,1)-benzo[d]imidazola-2(2,4)-pyridina-1(4,5)-pyrazola-7(1,3)-cyclobutanacyclononaphane-5^6-yl)piperazin-1-yl)piperidin-1-yl)-4,6-dimethylpyridin-2-yl)piperidine-2,6-dione] |  |  | 11.9 | 85.1 | 0.7 | 40.4
7 | Cc1cc2cc(n1)-c1cnn(C)c1OC[C@H]1C[C@@H](CN3/C(=N/C2=O)Nc2ccc(N4CCN(C5CCN(c6cc(F)c(C7CCC(=O)NC7=O)nc6C)CC5)CC4)cc23)C1 (stereo partly shown) [Example 142, 3-(5-(4-(4-((7^1s,7^3s,E)-1^1,2^6-dimethyl-3-oxo-5^2,5^3-dihydro-1^1H,5^1H-9-oxa-4-aza-5(2,1)-benzo[d]imidazola-2(2,4)-pyridina-1(4,5)-pyrazola-7(1,3)-cyclobutanacyclononaphane-5^6-yl)piperazin-1-yl)piperidin-1-yl)-3-fluoro-6-methylpyridin-2-yl)piperidine-2,6-dione] |  |  | 52.3 | 76.2 |  | 
8 | CCc1cc(C2CCC(=O)NC2=O)ncc1N1CCC(N2CC(N3CCN(c4ccc5c(c4)N4C[C@H]6C[C@@H](COc7c(cnn7C)-c7cc(cc(C)n7)C(=O)/N=C/4N5)C6)CC3)C2)CC1 (stereo partly shown) [Example 143, 3-(5-(4-(3-(4-((7^1s,7^3s,E)-1^1,2^6-dimethyl-3-oxo-5^2,5^3-dihydro-1^1H,5^1H-9-oxa-4-aza-5(2,1)-benzo[d]imidazola-2(2,4)-pyridina-1(4,5)-pyrazola-7(1,3)-cyclobutanacyclononaphane-5^6-yl)piperazin-1-yl)azetidin-1-yl)piperidin-1-yl)-4-ethylpyridin-2-yl)piperidine-2,6-dione] |  |  | 8.5 | 75.8 |  | 
9 | Cc1cc2cc(n1)-c1cnn(C)c1OC[C@H]1C[C@@H](CN3/C(=N/C2=O)Nc2ccc(N4CCN(C5CN(C6CCN(c7cc(F)c([C@H]8CCC(=O)NC8=O)c(F)c7)CC6)C5)C[C@H]4C)cc23)C1 [Example 148, (R)-3-(4-(4-(3-((R)-4-((7^1s,7^3S,E)-1^1,2^6-dimethyl-3-oxo-5^2,5^3-dihydro-1^1H,5^1H-9-oxa-4-aza-5(2,1)-benzo[d]imidazola-2(2,4)-pyridina-1(4,5)-pyrazola-7(1,3)-cyclobutanacyclononaphane-5^6-yl)-3-methylpiperazin-1-yl)azetidin-1-yl)piperidin-1-yl)-2,6-difluorophenyl)piperidine-2,6-dione] |  |  | 3 | 80 |  | 
10 | (R)-3-(4-(4-(4-((7^1s,7^3s,E)-1^1,2^6-dimethyl-3-oxo-5^2,5^3-dihydro-1^1H,5^1H-9-oxa-4-aza-5(2,1)-benzo[d]imidazola-2(2,4)-pyridina-1(4,5)-pyrazola-7(1,3)-cyclobutanacyclononaphane-5^6-yl)piperazin-1-yl)piperidin-1-yl)-2,6-difluorophenyl)piperidine-2,6-dione [Example 6] | 91.2 | 91.7 |  |  |  | 
